We go through three compounds from paper PMC10746543, “Design principles for cyclin K molecular glue degraders” (Nature Chemical Biology, 2023).

One may read the EC50 as the concentration at which the effect is half-maximal. The DC50 is the concentration at which degradation of the target reaches its halfway point.

One experiment relates to HEK293T cells. Kind of experiment: Drug sensitivity assay (CellTiter-Glo viability) with or without MLN4924 pretreatment. Type of experiment: cell-based, human. The settings on record: Supplementary Table 2; for EC50: Homo sapiens, HEK-293T, HEK293T viability, 72 h, compound alone, read-out: Cellular assays EC50; for Toxicity rescue: MLN4924-mediated cytotoxicity rescue, 10 µM used where n.d. In short, it runs like this: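 First, cells (HEK293T–Cas9, 0.15 × 10^6 ml^−1) are exposed to DMSO or 100 nM MLN4924. Next, drugs follow at 2 h. Finally, CellTiter-Glo is read at day 3 and normalised to DMSO.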
In general terms: In ATP-based viability assays light output follows the ATP content of the culture.

For experiment [1], the system named is cyclin K–eGFP degradation reporter. Briefly: Cyclin K reporter stability analysis (dual-color cyclin K–eGFP reporter). Format: cell-based, human. In short, it runs like this:
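Cells (HEK293T–Cas9, reporter-expressing) at 1 × 10^6 ml^−1; 5 h compound or DMSO; flow cytometry; gMFI eGFP ÷ mCherry on round mCherry-positive events; normalized to 3 DMSO controls.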

A further experiment deals with T1, CDK12–cyclin K and DDB1 (Homo sapiens, UniProt Q16531+Q9NYV4, K965R).
T1 construct: His6–CDK12 (a.a. 713–1,052); full-length or beta-propeller B domain deletion (ΔBPB: a.a. 396–705 deleted) constructs of His6–DDB1ΔBPB, StrepII–Avi–DDB1, or His6–Spy–DDB1; made in house; host or cells: Trichoplusia ni High Five insect cells (baculovirus)
Briefly: TR-FRET ternary complex formation assay (compound titration). Type of experiment: binding. As to conditions: for TR-FRET signal at compound concentration: replicate titrations. In short, it runs like this:
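Background fluorescence is reduced by reading 70 μs after excitation, and complex formation is followed as the 520:490 nm fluorescence ratio.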
(In general: In TR-FRET formats the signal depends on donor and acceptor labels being close together.)

Where [2] appears, read: Supplementary Table 2, HEK293T cycK-eGFP reporter, 5 h, read-out: Cellular assays DC50.
[3] abbreviates: compound concentration 79.2001 nM.
[4] abbreviates: compound concentration 158.4 nM.
Setting [5] is: compound concentration 309.6 nM.
The mark [6] stands for this setting: compound concentration 626.401 nM.
The mark [7] stands for this setting: compound concentration 1252.8 nM.
Setting [8] is: compound concentration 9936.01 nM.
The mark [9] stands for this setting: compound concentration 20016 nM.

Values joined by “and” are separate entries in the source; they are usually repeats but may differ in a detail not shown here. Identical values can stand only once. Like-named read-outs stand apart in the source and are kept apart here. A value given as a limit tells only on which side of the number the result lay.

T1 sequence (Q9NYV4 713-1052 K965R): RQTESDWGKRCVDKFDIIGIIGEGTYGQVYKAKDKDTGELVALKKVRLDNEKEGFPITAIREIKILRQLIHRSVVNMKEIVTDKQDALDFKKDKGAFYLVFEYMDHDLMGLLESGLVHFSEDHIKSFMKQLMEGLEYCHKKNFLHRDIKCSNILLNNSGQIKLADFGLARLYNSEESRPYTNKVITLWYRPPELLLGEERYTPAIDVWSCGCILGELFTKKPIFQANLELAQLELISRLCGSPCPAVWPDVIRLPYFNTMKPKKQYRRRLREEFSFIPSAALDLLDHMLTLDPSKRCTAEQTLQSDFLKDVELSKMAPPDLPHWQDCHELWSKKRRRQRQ
T1 sequence (O75909 1-267 partner): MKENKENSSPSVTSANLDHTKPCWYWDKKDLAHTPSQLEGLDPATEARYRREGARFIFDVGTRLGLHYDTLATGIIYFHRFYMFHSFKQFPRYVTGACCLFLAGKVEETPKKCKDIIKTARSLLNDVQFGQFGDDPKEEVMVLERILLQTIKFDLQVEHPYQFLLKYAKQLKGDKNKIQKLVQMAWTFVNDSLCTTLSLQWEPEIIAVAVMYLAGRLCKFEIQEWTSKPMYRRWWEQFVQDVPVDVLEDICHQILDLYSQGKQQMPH
T1 sequence (Q16531 whole entry): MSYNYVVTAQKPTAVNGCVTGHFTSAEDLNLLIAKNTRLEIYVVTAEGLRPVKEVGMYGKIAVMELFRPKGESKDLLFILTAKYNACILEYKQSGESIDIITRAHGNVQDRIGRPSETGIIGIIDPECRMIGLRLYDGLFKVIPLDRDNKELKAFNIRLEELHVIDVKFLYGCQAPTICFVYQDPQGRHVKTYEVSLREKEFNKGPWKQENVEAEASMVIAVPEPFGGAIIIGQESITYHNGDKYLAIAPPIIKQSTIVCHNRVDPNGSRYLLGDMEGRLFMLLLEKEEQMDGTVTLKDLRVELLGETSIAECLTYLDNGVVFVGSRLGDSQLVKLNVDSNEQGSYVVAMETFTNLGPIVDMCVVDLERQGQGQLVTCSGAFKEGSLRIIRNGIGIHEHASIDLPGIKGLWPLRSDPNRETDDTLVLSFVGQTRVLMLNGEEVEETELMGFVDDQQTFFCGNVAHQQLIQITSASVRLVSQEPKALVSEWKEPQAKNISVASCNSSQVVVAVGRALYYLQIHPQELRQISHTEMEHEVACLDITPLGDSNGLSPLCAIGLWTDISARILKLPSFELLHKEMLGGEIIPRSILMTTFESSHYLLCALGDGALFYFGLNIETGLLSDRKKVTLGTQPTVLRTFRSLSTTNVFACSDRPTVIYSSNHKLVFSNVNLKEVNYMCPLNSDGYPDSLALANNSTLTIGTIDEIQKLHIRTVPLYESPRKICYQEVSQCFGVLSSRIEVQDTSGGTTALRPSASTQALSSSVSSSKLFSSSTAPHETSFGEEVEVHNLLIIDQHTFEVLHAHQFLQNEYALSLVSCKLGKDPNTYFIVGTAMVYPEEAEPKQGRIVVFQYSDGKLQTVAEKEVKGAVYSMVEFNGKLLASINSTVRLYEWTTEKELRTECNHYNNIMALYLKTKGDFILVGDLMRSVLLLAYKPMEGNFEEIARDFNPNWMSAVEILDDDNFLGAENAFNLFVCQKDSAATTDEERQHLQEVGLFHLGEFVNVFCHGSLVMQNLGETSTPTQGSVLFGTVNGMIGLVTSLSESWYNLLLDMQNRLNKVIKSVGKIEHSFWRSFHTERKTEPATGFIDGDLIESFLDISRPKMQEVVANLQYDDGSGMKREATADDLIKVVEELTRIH

On to `CO[C@@H](C(=O)N1Cc2n[nH]c(NC(=O)c3ccc(N4CCN(C)CC4)cc3)c2C1)c1ccccc1` [Danusertib, reference compound], for which, in the experiment with HEK293T cells, the EC50 was above 10000 nM and the Toxicity rescue amounted to 0%. The DC50 in experiment [1] (setting [2]) is above 10000 nM. The “TR-FRET signal at compound concentration 4.68 nM” value at CDK12–cyclin K and DDB1 (compound concentration 4.68 nM, raw replicate titration data) is 0.1339 and 0.1541. Moreover, at CDK12–cyclin K and DDB1 (compound concentration 21.6 nM, raw replicate titration data), the “TR-FRET signal at compound concentration 21.6 nM” value was 0.1288 and 0.1496. In addition, at CDK12–cyclin K and DDB1 (compound concentration 36 nM, raw replicate titration data), the “TR-FRET signal at compound concentration 36 nM” value was 0.1327 and 0.1506. Further, the “TR-FRET signal at compound concentration 79.2001 nM” value on CDK12–cyclin K and DDB1 (compound concentration 79.2001 nM, raw replicate titration data) is 0.1323 and 0.1494. The “TR-FRET signal at compound concentration 158.4 nM” value on CDK12–cyclin K and DDB1 (compound concentration 158.4 nM, raw replicate titration data) was 0.1293 and 0.1473. Also, the “TR-FRET signal at compound concentration 309.6 nM” value on CDK12–cyclin K and DDB1 (compound concentration 309.6 nM, raw replicate titration data) is 0.1264 and 0.1438. In addition, on CDK12–cyclin K and DDB1 (compound concentration 626.401 nM, raw replicate titration data), the “TR-FRET signal at compound concentration 626.401 nM” value is 0.1205 and 0.1382. For the same compound, the “TR-FRET signal at compound concentration 1252.8 nM” value at CDK12–cyclin K and DDB1 (compound concentration 1252.8 nM, raw replicate titration data) is 0.1096 and 0.1174. For the same compound, the “TR-FRET signal at compound concentration 2448 nM” value on CDK12–cyclin K and DDB1 (compound concentration 2448 nM, raw replicate titration data) is 0.09891 and 0.113. In addition, on CDK12–cyclin K and DDB1 (compound concentration 9936.01 nM, raw replicate titration data), the “TR-FRET signal at compound concentration 9936.01 nM” value is 0.07702 and 0.08712. Moreover, the “TR-FRET signal at compound concentration 20016 nM” value at CDK12–cyclin K and DDB1 (compound concentration 20016 nM, raw replicate titration data) is 0.06845 and 0.07789.
Consider `CC[C@H](CO)Nc1nc(NCC2CCCCC2)c2ncn(C(C)C)c2n1` [DS12], for which the EC50 in the experiment with HEK293T cells was above 10000 nM; at CDK12–cyclin K and DDB1 (Supplementary Table 2, read-out: TR-FRET EC50 TR-FRET) it was 774 nM. In addition, the Toxicity rescue with HEK293T cells was 0%. In addition, in experiment [1] (setting [2]), the DC50 was above 10000 nM. Besides, the “TR-FRET signal, individual replicate” value at CDK12–cyclin K and DDB1 (compound concentration 4.68 nM) is 0.1383 and 0.1554; on CDK12–cyclin K and DDB1 (compound concentration 21.6 nM), 0.1534 and 0.1726; at CDK12–cyclin K and DDB1 (compound concentration 36 nM), 0.171 and 0.1959; on CDK12–cyclin K and DDB1 (setting [3]) it was 0.2152 and 0.2381; at CDK12–cyclin K and DDB1 (setting [4]) it was 0.2801 and 0.3063; on CDK12–cyclin K and DDB1 (setting [5]), 0.3618 and 0.4127. For the same compound, the “TR-FRET signal, individual replicate” value at CDK12–cyclin K and DDB1 (setting [6]) was 0.3596 and 0.5492; at CDK12–cyclin K and DDB1 (setting [7]), 0.6021 and 0.6861; on CDK12–cyclin K and DDB1 (compound concentration 2448 nM) it was 0.7207 and 0.8094; at CDK12–cyclin K and DDB1 (setting [8]) it was 0.7638 and 0.9453; on CDK12–cyclin K and DDB1 (setting [9]), 0.8451 and 0.9714.
For `CC[C@H](CO)Nc1nc(NCCCCCc2ccccc2)c2ncn(C(C)C)c2n1` [DS02], the EC50 in the experiment on HEK293T cells was above 10000 nM; at CDK12–cyclin K and DDB1 (in vitro complex formation, 50 nM CDK12–cyclin K, 100 nM DDB1, text and figures, read-out: TR-FRET EC50), 285 ± 19 nM; at CDK12–cyclin K and DDB1 (sheet MOESM7, read-out: log TR-FRET EC50 (converted)), 285 nM; on CDK12–cyclin K and DDB1 (source data sheet correlations, read-out: TR-FRET EC50) it was 285 nM. Further, the Toxicity rescue in the experiment on HEK293T cells was found to be 0%. The DC50 in experiment [1] (source data sheet correlations, read-out: DC50) stood at 1780 nM. The “fold lower affinity than DS11” value on CDK12–cyclin K and DDB1 (TR-FRET complex formation) was 5-10 fold. The “TR-FRET signal at compound concentration” value at CDK12–cyclin K and DDB1 (compound concentration 4.68 nM) is 0.1674 and 0.1915; on CDK12–cyclin K and DDB1 (compound concentration 21.6 nM), 0.2669 and 0.3147; on CDK12–cyclin K and DDB1 (compound concentration 36 nM), 0.462 and 0.5388; on CDK12–cyclin K and DDB1 (setting [3]), 0.7422 and 0.8389; on CDK12–cyclin K and DDB1 (setting [4]) it was 1.142 and 1.242; on CDK12–cyclin K and DDB1 (setting [5]), 1.648 and 1.83. Besides, the “TR-FRET signal at compound concentration” value on CDK12–cyclin K and DDB1 (setting [6]) is 2.134 and 2.344; at CDK12–cyclin K and DDB1 (setting [7]), 2.523 and 2.691; at CDK12–cyclin K and DDB1 (compound concentration 2448 nM), 2.757 and 2.986; at CDK12–cyclin K and DDB1 (setting [8]), 2.985 and 3.212; on CDK12–cyclin K and DDB1 (setting [9]) it was 3.04 and 3.2335.
